In US8653036B2, “Methods of treating retinitis pigmentosa” (Mimetogen Pharmaceuticals Inc., priority 2009, dated 2014):

B1: NT-3: Neurotrophin-3 (an agonist of TrkC and p75 receptors) (protein, UniProt P20783 139-257, looked up)
Neurotrophin-3: YAEHKSHRGEYSVCDSESLWVTDKSSAIDIRGHQVTVLGEIKTGNSPVKQYFYETRCKEARPVKNGCRGIDDKHWNSQCKTSQTYVRALTSENNKLVGWRWIRIDTSCVCALSRKIGRT

Columns and labels:
[1] = test system: mouse model of retinal degeneration; assay: Mouse model of retinal degeneration: ERG (scotopic and photopic) and number of Outer Nuclear Layer rows; assay type: in vivo; details: drug treated versus control treated animals
Description: Additional experiments in a mouse model of retinal degeneration were conducted.

[2] = test system: APRE19 cells; assay: Protection of retinal pigmented epithelial cells from oxidative-stress-induced apoptosis (TNFα and H2O2), nuclei stained with Hoechst reagent; assay type: cell-based; details: stressed APRE19 cells, TNFα and H2O2, sixteen hours
Description: Neurotrophic Protection of Retinal Pigmented Epithelial Cells from Degeneration Due to Oxidative Stress
The purpose of this study was to investigate the pharmacological concept of neurotrophic prevention of oxidative-stress-induced degeneration of retinal pigmented epithelial (RPE) cells. The aim of this study was to validate specific compounds as therapy for retinitis pigmentosa.
APRE19 cells were cultured in complete media, followed by eight hours of serum starvation. Then apoptosis was induced by exposure to oxidative stress (TNFα and H2O2), in the presence or absence of test compounds or controls for sixteen hours. Apoptosis was quantified as the percentage of dead cells over total live+dead cells by counting nuclei stained with Hoechst reagent.
Test agents included nerve growth factor (an agonist of TrkA and p75 receptors), Neurotrophin-3 (an agonist of TrkC and p75 receptors), and compounds D3, 3Ak, 3Ae and 3Aa.

[3] = test system: APRE19 cells; details: cited from earlier work

| Molecule | drug effect on ERG (scotopic and photopic) and number of Outer Nuclear Layer rows versus control [1] | protection of apoptosis (in words) [2] | protection of stressed APRE19 cells by neurotrophins (published) [3] |
| --- | --- | --- | --- |
| CC[C@H](C)[C@@H]1NC(=O)c2cc(N)ccc2OCc2ccc(C(N)=O)cc2NC(=O)[C@H](CCCCN)NC1=O [Compound 3Aa] | did not show a drug effect that was statistically significant from control | protection is not dose dependent and is less than that seen with compounds D3, 3Ak and 3Ae |  |
| CC[C@H](C)[C@@H]1NC(=O)c2cc(N)ccc2OCc2ccc(C(N)=O)cc2NC(=O)[C@H](CCCNC(=N)N)NC1=O [Compound 3Ae] |  | quantitative and significant protection of apoptosis, in a dose dependent manner |  |
| N=C(N)NCCC[C@@H]1NC(=O)c2cc(N)ccc2OCc2ccc(C(N)=O)cc2NC(=O)CNC1=O [Compound 3Ak] |  | quantitative and significant protection of apoptosis, in a dose dependent manner |  |
| NCCCC[C@@H]1NC(=O)[C@H](CCC(=O)O)NC(=O)c2cc([N+](=O)[O-])ccc2OCCC(C(=O)NCC(=O)O)NC1=O (stereo partly shown) [Compound D3] |  | quantitative and significant protection of apoptosis, in a dose dependent manner |  |
| NGF: nerve growth factor (an agonist of TrkA and p75 receptors) |  |  | Protection of stressed APRE19 cells |
| B1 |  |  | Protection of stressed APRE19 cells |
